Experimental data published in patent US8080251B2, “Antigenic peptides” (Centre for DNA Fingerprinting and Diagnostics, priority 2004, dated 2011).

Assays:
[1] = test system: serum IgG antibodies (patient sera); experiment: ELISA of serum IgG antibody response of TB patients to rRv2608 protein / synthetic peptides; type: binding, human; settings: for Reactivity with patient sera: TB patient sera, ELISA; for Mean (O.D. at 492 nm): humoral response, antigen 2 μg/ml
[2] = test system: peripheral blood mononuclear cells (PBMCs); experiment: Lymphocyte (T cell) proliferation assay, MTT readout; type: cell-based, human; settings: comparison between patient categories / between peptides
[3] = Category I patients (TB diagnosed for the first time, n=22)
[4] = Category II patients (relapsed TB, n=21)
[5] = Category III patients (extrapulmonary TB, n=8)

Molecule: RPGLDELSFTLTK (listed as Mycobacterium tuberculosis) [Peptide P2a, 13-residue overlapping peptide, part of peptide 2]
- Reactivity with patient sera [1]: react equally well with patient sera
- Mean (O.D. at 492 nm) [1, 3]: 0.473
- Mean (O.D. at 492 nm) [1, 4]: 0.689
- Mean (O.D. at 492 nm) [1, 5]: 0.392

Molecule: DNIGNANIGFGNK (listed as Mycobacterium tuberculosis) [Peptide P1a, 13-residue overlapping peptide, component of peptide 1]
- Reactivity with patient sera [1]: react equally well with patient sera
- Mean (O.D. at 492 nm) [1, 3]: 0.426
- Mean (O.D. at 492 nm) [1, 4]: 0.770
- Mean (O.D. at 492 nm) [1, 5]: 0.473

Molecule: DNIGNANIGFGNRGDANIGIGNIGDRNLGIGNTGNWK (listed as Mycobacterium tuberculosis) [Peptide P1]
- Reactivity with patient sera [1]: strongly react with patient sera
- Mean (O.D. at 492 nm) [1, 3]: 0.412
- Mean (O.D. at 492 nm) [1, 4]: 0.675
- Mean (O.D. at 492 nm) [1, 5]: 0.483

Molecule: RPGLDELSFTLTGNPNRPDGGILTK (listed as Mycobacterium tuberculosis) [Peptide P2]
- Reactivity with patient sera [1]: strongly react with patient sera
- Mean (O.D. at 492 nm) [1, 3]: 0.480
- Mean (O.D. at 492 nm) [1, 4]: 0.706
- Mean (O.D. at 492 nm) [1, 5]: 0.441
- T cell proliferative response [2]: comparatively higher T cell response
- T cell proliferative response ([2]; listed as Peptide 2): higher response in fresh infection cases
- T cell proliferative response ([2]; listed as peptide 2): fresh infection cases>relapsed TB>extrapulmonary TB cases

Molecule: NIGFGNRGDANIK (listed as Mycobacterium tuberculosis) [Peptide P1b, 13-residue overlapping peptide, component of peptide 1]
- Reactivity with patient sera [1]: react equally well with patient sera
- Mean (O.D. at 492 nm) [1, 3]: 0.469
- Mean (O.D. at 492 nm) [1, 4]: 0.775
- Mean (O.D. at 492 nm) [1, 5]: 0.520

Molecule: GNPNRPDGGILTK (listed as Mycobacterium tuberculosis) [Peptide P2c, 13-residue overlapping peptide, part of peptide 2]
- Reactivity with patient sera [1]: react equally well with patient sera
- Mean (O.D. at 492 nm) [1, 3]: 0.491
- Mean (O.D. at 492 nm) [1, 4]: 0.632
- Mean (O.D. at 492 nm) [1, 5]: 0.410
- T cell proliferative response [2]: comparatively higher T cell response

Molecule: LSFTLTGNPNRPK (listed as Mycobacterium tuberculosis) [Peptide P2b, 13-residue overlapping peptide, part of peptide 2]
- Reactivity with patient sera [1]: react equally well with patient sera
- Mean (O.D. at 492 nm) [1, 3]: 0.450
- Mean (O.D. at 492 nm) [1, 4]: 0.498
- Mean (O.D. at 492 nm) [1, 5]: 0.422

Molecule: DRNLGIGNTGNWK (listed as Mycobacterium tuberculosis) [Peptide P1e, 13-residue overlapping peptide, component of peptide 1]
- Reactivity with patient sera [1]: react equally well with patient sera
- Mean (O.D. at 492 nm) [1, 3]: 0.407
- Mean (O.D. at 492 nm) [1, 4]: 0.711
- Mean (O.D. at 492 nm) [1, 5]: 0.405

Molecule: GIGNIGDRNLGIK (listed as Mycobacterium tuberculosis) [Peptide P1d, 13-residue overlapping peptide, component of peptide 1]
- Reactivity with patient sera [1]: react equally well with patient sera
- Mean (O.D. at 492 nm) [1, 3]: 0.482
- Mean (O.D. at 492 nm) [1, 4]: 0.787
- Mean (O.D. at 492 nm) [1, 5]: 0.527

Molecule: RGDANIGIGNIGK (listed as Mycobacterium tuberculosis) [Peptide P1c, 13-residue overlapping peptide, component of peptide 1]
- Reactivity with patient sera [1]: react equally well with patient sera
- Mean (O.D. at 492 nm) [1, 3]: 0.416
- Mean (O.D. at 492 nm) [1, 4]: 0.810
- Mean (O.D. at 492 nm) [1, 5]: 0.380

B1: rRv2608: 59.6 kDa recombinant M. tuberculosis PPE_MPTR protein Rv2608, expressed in E. coli BL21 as 6×His-tag fusion protein (protein)
chain: MNFAVLPPEVNSARIFAGAGLGPMLAAASAWDGLAEELHAAAGSFASVTTGLAGDAWHGPASLAMTRAASPYVGWLNTAAGQAAQAAGQARLAASAFEATLAATVSPAMVAANRTRLASLVAANLLGQNAPAIAAAEAEYEQIWAQDVAAMFGYHSAASAVATQLAPIQEGLQQQLQNVLAQLASGNLGSGNVGVGNIGNDNIGNANIGFGNRGDANIGIGNIGDRNLGIGNTGNWNIGIGITGNGQIGFGKPANPDVLVVGNGGPGVTALVMGGTDSLLPLPNIPLLEYAARFITPVHPGYTATFLETPSQFFPFTGLNSLTYDVSVAQGVTNLHTAIMAQLAAGNEVVVFGTSQSATIATFEMRYLQSLPAHLRPGLDELSFTLTGNPNRPDGGILTRFGFSIPQLGFTLSGATPADAYPTVDYAFQYDGVNDFPKYPLNVFATANAIAGILFLHSGLIALPPDLASGVVQPVSSPDVLTTYILLPSQDLPLLVPLRAIPLLGNPLADLIQPDLRVLVELGYDRTAHQDVPSPFGLFPDVDWAEVAADLQQGAVQGVNDALSGLGLPPPWQPALPRLF
modifications: left off: small tags and cut ends
- Serum reactivity of extrapulmonary TB patients ([1]; Category III compared to Category I or II): less reactivity
- Serum reactivity compared with Hsp10 ([1]; all patient categories, p>0.05): equal to or higher than the response to Hsp10
- Serum reactivity of healthy controls ([1]; healthy controls (n=10) vs patients, p=0.0002): significantly less when compared to that of patients
